Assay [1] concerns the target T1, IRE1α (Homo sapiens (Human), UniProt O75460). As to the kind of experiment: In vitro luciferase assay (IRE1α Endoribonuclease Nanoluciferase Assay). Type of assay: cell-based. To be noted: 293T cells, XBP1 luciferase reporter. On the procedure:
Compounds disclosed herein were assessed for disruption of IRE-1 signaling using a IRE1α Endoribonuclease Nanoluciferase Assay. Briefly, 2.5×10^6 293T cells were seeded in a 10 cm^2 tissue culture plate. About 24 hours later, the cells were transfected with Effectene. In a 15 mL Tube, the following was added: 2 μg XBP1 luciferase reporter plasmid (PGK-Luc2-P2A-XBP1u-Nanoluciferase-PEST); 300 μl EC buffer; and 16 μl Enhancer, followed by incubation at room temp for 5 minutes. Next, 60 μl Effectene (Qiagen 301427) was added, followed by incubation at room temperature for 10 minutes. 2.6 mL cDMEM media was added. Old media was aspirated from the cells, followed by addition of 7 mL fresh media. Full transfection mixture was added dropwise to cells. Cells were incubated for 6 hours, followed by trypsinization, centrifugation and resuspension in 11 mL media. 100 uL of cells were plated per a well in a 96 well plate. A day later, ER stressors of choice+/−inhibitors were added. To harvest, media was aspirated from cells completely, then 50 uL 1× passive lysis buffer (Promega: E1941) was added per well and put on shaker (300 rpm) for 30 minutes at room temperature. Cells were centrifuged, and 15 uL sample per well was added to a new, opaque white 384 well plate (Corning 3570). 15 uL OneGlo (nanoluciferase kit, Promega N1630) was added. Plates were spun down, placed on shaker (300 rpm) for 10 minutes. Plates were read on luminometer, 1000 ms integration time per well. 15 uL Stop and Glo (nanoluciferase kit) was added. Plates were spun down, placed on shaker (300 rpm) for 10 minutes. Plates were read on luminometer, 1000 ms second integration time per well. Recordings are provided below in Table 4
In general terms: A reporter such as luciferase makes a cellular process visible.

Assay [2] concerns the target T1, IRE1α. Kind of assay: In vitro FRET assay. The settings on record: XBP1 RNA probe. The format is biochemical. On the procedure:
In vitro FRET assay was performed to evaluate the ability of select compounds to inhibit IRE1, the results of which are summarized in Table 3. To perform the in vitro FRET assay, 1× complete assay buffer (CAB; […], 50 mM sodium citrate pH 7.15, 1 mM magnesium acetate, 0.02% tween 20) was used to dilute SignalChem IRE1α protein to a final concentration of 2 nM. Selected compounds were serially diluted with DMSO in a non-binding black 384-well plate for a total of 15 ul in each well. 2 ul of the serially diluted compound or DMSO control were then added to new wells containing 98 ul of 1×CAB, for a total volume of 100 ul, 10 ul of which were then transferred to wells of a new plate. 5 ul of the diluted IRE1α was then added to each well. 5 ul of a […] XBP1 RNA probe was then added to each well. Fluorescence was then read over 30 minutes in kinetic mode (485/515 nm).
Two RNA probes were used, XBP1 wildtype (SEQ ID NO: 2) which is able to be spliced by active IRE1α or XBP1 mutant (SEQ ID NO: 3) which is unable to be spliced. Each probe contained a 5′ 6-FAM modification and a 3′ IOWA Black FQ modification.
A second FRET assay was performed to assess ATP-mediated inhibition. In this case, compounds and IRE1α were prepared and combined as discussed above, with the addition of ATP up to 1 mM final concentration. This mixture was incubated at room temperature for 60 minutes and then 5 ul of 400 nM XBP1 wildtype or mutant RNA probe was added. Plates were then read over 30 minutes in kinetic mode (485/515 nm) and rate of fluorescence increase calculated for different compound dilutions to determine IC50 (Table 3).

The text below walks through data of US11945784B2, “IRE1 small molecule inhibitors” (Cornell University, priority 2018, dated 2024).

Usually EC50 stands for the concentration giving half of the maximal effect. The low end stands for higher potency in that assay, the high end for lower potency in that assay. The IC50 is the point on the concentration scale where inhibition reaches its midpoint. Read a low IC50 as higher potency.

The structures appear in SMILES notation.

T1 sequence (O75460 19-977): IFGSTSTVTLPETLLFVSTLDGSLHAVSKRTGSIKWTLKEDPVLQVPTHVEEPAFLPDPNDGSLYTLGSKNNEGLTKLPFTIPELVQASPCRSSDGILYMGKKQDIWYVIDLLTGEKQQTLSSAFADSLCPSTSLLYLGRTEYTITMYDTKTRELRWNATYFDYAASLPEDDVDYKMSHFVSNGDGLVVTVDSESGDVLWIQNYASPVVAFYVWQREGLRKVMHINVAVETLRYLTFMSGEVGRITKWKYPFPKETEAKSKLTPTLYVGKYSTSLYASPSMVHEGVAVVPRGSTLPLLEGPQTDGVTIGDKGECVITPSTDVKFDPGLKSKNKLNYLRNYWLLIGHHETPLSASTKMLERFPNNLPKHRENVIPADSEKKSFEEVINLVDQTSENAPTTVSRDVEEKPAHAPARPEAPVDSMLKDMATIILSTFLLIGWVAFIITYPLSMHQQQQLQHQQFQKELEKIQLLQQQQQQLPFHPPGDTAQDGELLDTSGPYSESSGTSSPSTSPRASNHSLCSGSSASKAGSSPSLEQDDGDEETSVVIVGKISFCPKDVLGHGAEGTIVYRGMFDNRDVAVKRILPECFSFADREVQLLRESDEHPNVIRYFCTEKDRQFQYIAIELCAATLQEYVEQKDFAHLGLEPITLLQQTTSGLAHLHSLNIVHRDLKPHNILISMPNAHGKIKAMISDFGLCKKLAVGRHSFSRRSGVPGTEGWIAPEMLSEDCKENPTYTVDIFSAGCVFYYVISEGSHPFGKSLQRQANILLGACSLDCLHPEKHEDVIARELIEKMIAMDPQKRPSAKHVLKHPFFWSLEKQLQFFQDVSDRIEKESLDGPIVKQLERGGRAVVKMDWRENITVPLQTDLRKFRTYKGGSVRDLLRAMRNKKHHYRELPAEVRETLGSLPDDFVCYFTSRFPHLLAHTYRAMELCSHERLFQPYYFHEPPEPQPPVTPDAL

At IRE1α [1], `Cc1cc(NS(=O)(=O)c2ccccc2Cl)c(F)cc1/C=C/c1cnc(NC2CCC(N(C)C)CC2)nc1` (stereo not shown) [Compound 28, 2-chloro-N-(4-((E)-2-(2-(((1r,4r)-4-(dimethylamino)cyclohexyl)amino)pyrimidin-5-yl)vinyl)-2-fluoro-5-methylphenyl)benzenesulfonamide] displayed an EC50 of no more than 5 nM. Further, the IC50 against IRE1α [2] was no more than 1 nM.

Regarding `CN(C)C1CCC(Nc2ncc(/C=C/c3ccc(NS(=O)(=O)c4ccccc4Cl)cc3)cn2)CC1` (stereo not shown) [Compound 34, 2-chloro-N-(4-((E)-2-(2-(((1r,4r)-4-(dimethylamino)cyclohexyl)amino)pyrimidin-5-yl)vinyl)phenyl)benzenesulfonamide], at IRE1α [1], the EC50 is no more than 5 nM. Further, the IC50 on IRE1α [2] was no more than 1 nM.

In the case of `CCc1cc(NS(=O)(=O)c2ccccc2Cl)cnc1CCc1cnc(NC2CCC(N)CC2)nc1` (stereo not shown) [Compound 16, N-(6-(2-(2-(((1r,4r)-4-aminocyclohexyl)amino)pyrimidin-5-yl)ethyl)-5-ethylpyridin-3-yl)-2-chlorobenzenesulfonamide], the EC50 on IRE1α [1] lay within 100 to 10000 nM. The same compound had an IC50 at IRE1α [2] of no more than 1 nM.

With `Cc1nc(NS(=O)(=O)c2ccccc2Cl)ccc1/C=C/c1cnc(NC2CCC(N)CC2)nc1` (stereo not shown) [Compound 46, N-(5-((E)-2-(2-(((1r,4r)-4-aminocyclohexyl)amino)pyrimidin-5-yl)vinyl)-6-methylpyridin-2-yl)-2-chlorobenzenesulfonamide], on IRE1α [1], the EC50 was in the range of 5 to 50 nM. This compound also had an IC50 against IRE1α [2] of no more than 1 nM.

On IRE1α [1], `Cc1nc(NS(=O)(=O)c2ccccc2Cl)ccc1/C=C/c1cnc(NC23CCC(N)(CC2)CC3)nc1` [Compound 49, (E)-N-(5-(2-(2-((4-aminobicyclo[2.2.2]octan-1-yl)amino)pyrimidin-5-yl)vinyl)-6-methylpyridin-2-yl)-2-chlorobenzenesulfonamide] gave an EC50 of 100 to 10000 nM. Also, the IC50 against IRE1α [2] was no more than 1 nM.

On to `COc1nc(NS(=O)(=O)c2cccc(F)c2Cl)ccc1/C=C/c1cnc(NC2CCC(N(C)C)CC2)nc1` (single isomer, unassigned) [Compound 39, 2-chloro-N-(5-((E)-2-(2-(((1r,4r)-4-(dimethylamino)cyclohexyl)amino)pyrimidin-5-yl)vinyl)-6-methoxypyridin-2-yl)-3-fluorobenzenesulfonamide], for which, at IRE1α [1], the EC50 was no more than 5 nM. The IC50 on IRE1α [2] is no more than 1 nM.

Take `CCN(CC)C1CCC(Nc2ncc(/C=C/c3ccc(NS(=O)(=O)c4ccccc4Cl)nc3C)cn2)CC1` (stereo not shown) [Compound 30, 2-chloro-N-(5-((E)-2-(2-(((1r,4r)-4-(diethylamino)cyclohexyl)amino)pyrimidin-5-yl)vinyl)-6-methylpyridin-2-yl)benzenesulfonamide]: the EC50 at IRE1α [1] is no more than 5 nM. The compound further yielded an IC50 at IRE1α [2] of no more than 1 nM.

`Cc1nc(NS(=O)(=O)c2ccccc2Cl)ccc1CCc1cnc(NC2CCC(N(C)C)CC2)nc1` (stereo not shown) [Compound 21, 2-chloro-N-(5-(2-(2-(((1r,4r)-4-(dimethylamino)cyclohexyl)amino)pyrimidin-5-yl)ethyl)-6-methylpyridin-2-yl)benzenesulfonamide] registered an IC50 at IRE1α [2] of 1 to 5 nM.

For `CNC1CCC(Nc2ncc(/C=C/c3ccc(NS(=O)(=O)c4ccccc4Cl)nc3OC)cn2)CC1` (stereo not shown) [Compound 48, 2-chloro-N-(6-methoxy-5-((E)-2-(2-(((1r,4r)-4-(methylamino)cyclohexyl)amino)pyrimidin-5-yl)vinyl)pyridin-2-yl)benzenesulfonamide], the EC50 at IRE1α [1] was no more than 5 nM. In addition, the IC50 against IRE1α [2] was no more than 1 nM.

`CN(C)C1CCC(Nc2ncc(/C=C/c3ccc(NS(=O)(=O)c4ccccc4Cl)c(F)c3)cn2)CC1` (stereo not shown) [Compound 35, 2-chloro-N-(4-((E)-2-(2-(((1r,4r)-4-(dimethylamino)cyclohexyl)amino)pyrimidin-5-yl)vinyl)-2-fluorophenyl)benzenesulfonamide] registered an EC50 at IRE1α [1] of 5 to 50 nM. Also, the IC50 at IRE1α [2] was no more than 1 nM.

As to `CN(C)C1CCC(Nc2ncc(/C=C/c3ccc(NS(=O)(=O)c4ccccc4Cl)nc3)cn2)CC1` (stereo not shown) [Compound 36, 2-chloro-N-(5-((E)-2-(2-(((1r,4r)-4-(dimethylamino)cyclohexyl)amino)pyrimidin-5-yl)vinyl)pyridin-2-yl)benzenesulfonamide], the EC50 on IRE1α [1] is no more than 5 nM. Besides, at IRE1α [2], the IC50 was no more than 1 nM.

Compound `COc1nc(NS(=O)(=O)c2cccc(Cl)c2Cl)ccc1/C=C/c1cnc(NC2CCC(N(C)C)CC2)nc1` (stereo not shown) [Compound 51, 2,3-dichloro-N-(5-((E)-2-(2-(((1r,4r)-4-(dimethylamino)cyclohexyl)amino)pyrimidin-5-yl)vinyl)-6-methoxypyridin-2-yl)benzenesulfonamide] yielded an EC50 at IRE1α [1] of no more than 5 nM. Moreover, on IRE1α [2], the IC50 was no more than 1 nM.

`Cc1nc(NS(=O)(=O)c2cccc(F)c2Cl)ccc1/C=C/c1cnc(NC2CCC(N(C)C)CC2)nc1` (stereo not shown) [Compound 33, 2-chloro-N-(5-((E)-2-(2-(((1r,4r)-4-(dimethylamino)cyclohexyl)amino)pyrimidin-5-yl)vinyl)-6-methylpyridin-2-yl)-3-fluorobenzenesulfonamide] returned an EC50 at IRE1α [1] of no more than 5 nM. Besides, the IC50 at IRE1α [2] is no more than 1 nM.

Consider `COc1nc(NS(=O)(=O)c2ccccc2Cl)ccc1CCc1cnc(NC2CCC(O)CC2)nc1` (stereo not shown) [Compound 12, 2-chloro-N-(5-(2-(2-(((1r,4r)-4-hydroxycyclohexyl)amino)pyrimidin-5-yl)ethyl)-6-methoxypyridin-2-yl)benzenesulfonamide], for which, at IRE1α [2], the IC50 is 5 to 50 nM.

The compound `Cc1nc(NS(=O)(=O)c2ccc(F)cc2Cl)ccc1/C=C/c1cnc(NC2CCC(N(C)C)CC2)nc1` (stereo not shown) [Compound 31, 2-chloro-N-(5-((E)-2-(2-(((1r,4r)-4-(dimethylamino)cyclohexyl)amino)pyrimidin-5-yl)vinyl)-6-methylpyridin-2-yl)-4-fluorobenzenesulfonamide] displayed an EC50 at IRE1α [1] of no more than 5 nM. On IRE1α [2], this compound gave an IC50 of no more than 1 nM.

Compound `CN(C)C1CCC(Nc2ncc(/C=C/c3cnc(NS(=O)(=O)c4ccccc4Cl)cn3)cn2)CC1` (stereo not shown) [Compound 37, 2-chloro-N-(5-((E)-2-(2-(((1r,4r)-4-(dimethylamino)cyclohexyl)amino)pyrimidin-5-yl)vinyl)pyrazin-2-yl)benzenesulfonamide] gave an EC50 on IRE1α [1] of 5 to 50 nM. On IRE1α [2], the IC50 is no more than 1 nM.

Take `COc1nc(NS(=O)(=O)c2ccccc2Cl)c(F)cc1/C=C/c1cnc(NC2CCC(N(C)C)CC2)nc1` (stereo not shown) [Compound 50, 2-chloro-N-(5-((E)-2-(2-(((1r,4r)-4-(dimethylamino)cyclohexyl)amino)pyrimidin-5-yl)vinyl)-3-fluoro-6-methoxypyridin-2-yl)benzenesulfonamide]: on IRE1α [1], the EC50 lay in the range of 5 to 50 nM. Also, the IC50 against IRE1α [2] is no more than 1 nM.

`COc1nc(NS(=O)(=O)c2ccccc2Cl)ccc1/C=C/c1cnc(NC2CCC(N)CC2)nc1` (stereo not shown) [Compound 9, N-(5-((E)-2-(2-(((1r,4r)-4-aminocyclohexyl)amino)pyrimidin-5-yl)vinyl)-6-methoxypyridin-2-yl)-2-chlorobenzenesulfonamide]: the EC50 at IRE1α [1] is no more than 5 nM. The compound further returned an IC50 against IRE1α [2] of no more than 1 nM.

On IRE1α [2], `CN(C)C1CCC(Nc2ncc(C=Cc3cnc(NS(=O)(=O)c4ccccc4Cl)nc3)cn2)CC1` (stereo not shown) [Compound 40, 2-chloro-N-(5-(2-(2-(((1r,4r)-4-(dimethylamino)cyclohexyl)amino)pyrimidin-5-yl)vinyl)pyrimidin-2-yl)benzenesulfonamide] yielded an IC50 of no more than 1 nM.

Consider `COc1nc(NS(=O)(=O)c2ccccc2Cl)ccc1/C=C/c1cnc(NC2CCC(O)CC2)nc1` (stereo not shown) [Compound 11, 2-chloro-N-(5-((E)-2-(2-(((1r,4r)-4-hydroxycyclohexyl)amino)pyrimidin-5-yl)vinyl)-6-methoxypyridin-2-yl)benzenesulfonamide], for which the 50% inhibitory concentration (IC50) against IRE1α [2] was 1 to 5 nM.

With `COc1nc(NS(=O)(=O)c2ccccc2Cl)ccc1CCc1ccc(NC2CCC(N)CC2)nc1` (stereo not shown) [Compound 13, N-(5-(2-(6-(((1r,4r)-4-aminocyclohexyl)amino)pyridin-3-yl)ethyl)-6-methoxypyridin-2-yl)-2-chlorobenzenesulfonamide], the IC50 against IRE1α [2] fell in the range of 1 to 5 nM.
